# Measurements as given in ChEMBL document CHEMBL2434949, “Evaluation of licorice flavonoids as protein tyrosine phosphatase 1B inhibitors” (Bioorg Med Chem Lett, 2013).
# Calls of active or inactive are those of the source. The rule behind the calls is not given here.
# Experiments:
# [1] = biological target: T1, Tyrosine-protein phosphatase non-receptor type 1 (Homo sapiens) (UniProt P18031); test: Inhibition of PTP1B (unknown origin) using p-nitrophenyl phosphate as substrate at 100 uM
# T1 sequence (whole entry): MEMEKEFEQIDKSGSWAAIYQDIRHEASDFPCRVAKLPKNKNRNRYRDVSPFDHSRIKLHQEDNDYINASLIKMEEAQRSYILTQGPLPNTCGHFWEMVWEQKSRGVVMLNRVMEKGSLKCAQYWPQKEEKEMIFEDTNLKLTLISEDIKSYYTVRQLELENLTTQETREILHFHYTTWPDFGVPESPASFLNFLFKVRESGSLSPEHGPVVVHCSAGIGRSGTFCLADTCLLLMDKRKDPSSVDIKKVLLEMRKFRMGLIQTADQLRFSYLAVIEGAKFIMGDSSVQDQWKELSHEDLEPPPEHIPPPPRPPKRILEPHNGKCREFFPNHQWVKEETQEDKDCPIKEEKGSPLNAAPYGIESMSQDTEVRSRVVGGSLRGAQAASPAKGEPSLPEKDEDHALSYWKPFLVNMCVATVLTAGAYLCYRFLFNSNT
# [2] = biological target: T2, Tyrosine-protein phosphatase non-receptor type 1 (Homo sapiens, UniProt P18031); test: Inhibition of PTP1B (unknown origin) using p-nitrophenyl phosphate as substrate
# T2 sequence (P18031 whole entry): T1 sequence (whole entry)
# [3] = biological target: T1, Tyrosine-protein phosphatase non-receptor type 1 (Homo sapiens); test: Non-competitive inhibition of PTP1B (unknown origin) using p-nitrophenyl phosphate as substrate by Lineweaver-Burk plot analysis
# [4] = biological target: T1, Tyrosine-protein phosphatase non-receptor type 1 (Homo sapiens); test: Inhibition of PTP1B in human HepG2 cells assessed as increase of insulin-induced Akt phosphorylation at Ser473 at 20 to 100 uM after 5 mins by Western blotting; assay type: cell-based
# [5] = biological target: Dual specificity protein phosphatase 3 (Homo sapiens) (UniProt P51452); test: Inhibition of VHR (unknown origin) at 100 uM
# Sequence of Dual specificity protein phosphatase 3 (Homo sapiens) (P51452 whole entry, looked up): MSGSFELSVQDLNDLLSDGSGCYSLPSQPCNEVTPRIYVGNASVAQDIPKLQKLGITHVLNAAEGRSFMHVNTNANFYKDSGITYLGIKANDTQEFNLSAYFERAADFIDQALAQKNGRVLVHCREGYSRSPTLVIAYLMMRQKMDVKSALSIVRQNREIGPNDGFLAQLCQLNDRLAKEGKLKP
# [6] = biological target: T3, Tyrosine-protein phosphatase non-receptor type 2 (Homo sapiens) (UniProt P17706); test: Inhibition of TCPTP (unknown origin) at 100 uM
# T3 sequence (whole entry): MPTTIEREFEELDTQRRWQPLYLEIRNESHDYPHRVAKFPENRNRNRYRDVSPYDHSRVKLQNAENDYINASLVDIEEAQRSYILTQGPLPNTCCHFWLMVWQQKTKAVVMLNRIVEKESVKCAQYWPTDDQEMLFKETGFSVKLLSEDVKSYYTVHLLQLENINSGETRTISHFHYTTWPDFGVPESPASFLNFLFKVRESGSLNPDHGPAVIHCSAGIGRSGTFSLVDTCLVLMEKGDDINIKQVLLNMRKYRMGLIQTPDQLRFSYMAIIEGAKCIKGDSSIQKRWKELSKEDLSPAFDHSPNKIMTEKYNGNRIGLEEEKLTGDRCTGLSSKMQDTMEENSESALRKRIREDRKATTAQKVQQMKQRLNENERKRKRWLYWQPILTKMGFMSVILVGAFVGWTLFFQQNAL
# [7] = biological target: T1, Tyrosine-protein phosphatase non-receptor type 1 (Homo sapiens); test: Mixed type inhibition of PTP1B (unknown origin) using p-nitrophenyl phosphate as substrate by Lineweaver-Burk plot analysis
# [8] = biological target: T1, Tyrosine-protein phosphatase non-receptor type 1 (Homo sapiens)
# Description: Competitive inhibition of PTP1B (unknown origin) using p-nitrophenyl phosphate as substrate by Lineweaver-Burk plot analysis
SMILES,inhibition [1] [%],IC50 [2] [µM],other results
CC(C)=CCc1cc([C@@H]2CC(=O)c3ccc(O)cc3O2)ccc1O,< 50,–,–
CC(C)=CCc1cc(-c2cc(=O)c3ccc(O)cc3o2)ccc1O,< 50,–,–
CC1(C)C=Cc2cc(/C=C/C(=O)c3ccc(O)cc3O)ccc2O1,–,44.3,–
CC(C)=CCc1c(O)ccc2c1O[C@H](c1ccc3c(c1)C(O)C(O)C(C)(C)O3)CC2=O (some centres undefined),< 50,–,–
CC(C)=CCc1cc(C(=O)C2(c3cc(O)c(O)cc3/C=C3\Oc4c(ccc(O)c4CC=C(C)C)C3=O)Oc3cc(O)c(CC=C(C)C)cc3C2=O)ccc1O (centres undefined) [LICOAGRONE],–,6,Kiuc [3]: 6.3 µM; Activity [4]: Active; inhibition [5]: > 70%; inhibition [6]: 4%
CCCCCCCCCCCCCCCC(=O)C1=C(O)[C@@H](CO)OC1=O,–,4.6,–
O=c1cc(-c2ccc(O)cc2)oc2cc(O)ccc12,< 50,–,–
CC1(C)C=Cc2cc([C@@H]3CC(=O)c4ccc5c(c4O3)C=CC(C)(C)O5)ccc2O1,< 50,–,–
COc1c([C@H]2c3c(cc(O)c(O)c3OC)C=C(C(=O)c3ccc(O)cc3)[C@H]2C(=O)c2ccc(O)cc2)ccc(O)c1O (relative stereo),–,36.2,–
COc1cc(O)cc2occ(-c3cc(O)c(O)c(CC=C(C)C)c3)c(=O)c12,–,–,inhibition [5]: > 70%; inhibition [6]: 4%
CC(C)=CCc1c(O)ccc2c1oc(=O)c1c3ccc(O)cc3oc21,< 50,–,–
O=c1cc(-c2ccc(O)cc2)oc2c([C@@H]3O[C@H](CO)[C@@H](O)[C@H](O)[C@H]3O)c(O)c([C@@H]3OC[C@H](O)[C@H](O)[C@H]3O)c(O)c12,< 50,–,–
COc1ccc2c(c1)O[C@H]1c3ccc(O)c(CC=C(C)C)c3OC[C@@H]21,< 50,–,–
CC(C)=CCc1cc([C@]23Oc4cc(O)c(CC=C(C)C)cc4C(=O)[C@H]2[C@H]2c4ccc(O)cc4O[C@@H]4Oc5c(ccc(O)c5CC=C(C)C)[C@@]42O3)ccc1O [LICOAGRODIN],–,11.5,inhibition [5]: 50%; inhibition [7]: Active; inhibition [6]: 4%
COc1c(CC=C(C)C)c(O)cc(O)c1-c1oc2cc(O)ccc2c1C,–,–,inhibition [5]: 35%; inhibition [6]: 4%
COc1c(/C=C/C(=O)c2ccc(O)cc2)ccc(O)c1O,< 50,–,–
O=c1c(O[C@@H]2O[C@H](CO)[C@@H](O)[C@H](O)[C@H]2O)c(-c2ccc(O)cc2)oc2cc(O)cc(O)c12,< 50,–,–
COc1ccc([C@@H]2COc3c(ccc4c3C=CC(C)(C)O4)C2)c(O)c1,< 50,–,–
O=C1C[C@@H](c2ccc(O[C@@H]3O[C@H](CO)[C@@H](O)[C@H](O)[C@H]3O)cc2)Oc2cc(O)ccc21,< 50,–,–
CC(C)=CCc1c(O)ccc(C(=O)/C=C/c2ccc(O)cc2)c1O [ISOBAVACHALCONE],–,27.3,inhibition [5]: > 70%; inhibition [7]: Active; inhibition [6]: 4%
O=c1c(O[C@@H]2O[C@H](CO)[C@@H](O)[C@H](O)[C@H]2O)c(-c2ccc(O)c(O)c2)oc2cc(O)cc(O)c12,< 50,–,–

# Continued, in another order:
inhibition [1] [%],IC50 [2] [µM],SMILES,other results
< 50,–,COc1cc(O)ccc1/C=C/C(=O)c1ccc(O)cc1,–
< 50,–,COc1ccc(-c2coc3cc(O)c(OC)cc3c2=O)cc1,–
< 50,–,O=C1C[C@@H](c2ccc(O)cc2)Oc2cc(O)ccc21,–
–,70,COc1ccc(-c2coc3cc(O)c(OC)cc3c2=O)cc1O [ODORATIN],–
–,62.4,CC(C)=CCc1cc([C@@H]2CC(=O)c3c(O)cc(O)c(CC=C(C)C)c3O2)ccc1O [LESPEDEZAFLAVANONE B],–
< 50,–,O=C(/C=C/c1ccc(O[C@@H]2O[C@H](CO)[C@@H](O)[C@H](O)[C@H]2O)cc1)c1ccc(O)cc1O,–
–,66.3,CC1(C)C=Cc2c(ccc(-c3coc4cc(O)ccc4c3=O)c2O)O1 [GLABRONE],–
–,75.1,CC(C)=CCc1cc([C@H]2Oc3c(ccc(O)c3CC=C(C)C)C(=O)[C@@H]2O)ccc1O,–
–,37.5,CC(C)=CCc1cc([C@@H]2CC(=O)c3ccc(O)c(CC=C(C)C)c3O2)ccc1O [GLABROL],–
–,59.5,COc1c(/C=C/C(=O)c2ccc(O)c(O)c2)ccc(O)c1CC=C(C)C,–
< 50,–,CC(C)=CCc1c(O)ccc2c1O[C@H](c1ccc3c(c1)C=CC(C)(C)O3)CC2=O,–
< 50,–,CC1(C)C=Cc2c(ccc3c2OC[C@@H](c2ccc(O)c4c2OC(C)(C)C=C4)C3)O1,–
< 50,–,O=c1cc(-c2ccc(O)cc2)oc2c([C@@H]3O[C@H](CO)[C@@H](O)[C@H](O)[C@H]3O)c(O)c([C@@H]3O[C@H](CO)[C@@H](O)[C@H](O)[C@H]3O)c(O)c12,–
–,32.6,CC(C)=CCc1cc(C(=O)CC(=O)c2cc(CC=C(C)C)c(O)cc2O)ccc1O,–
–,57,COc1c(/C=C/C(=O)c2ccc(O)cc2)ccc(O)c1CC=C(C)C,–
–,90.5,CC(C)=CCc1cc(C[C@@H](O)C(=O)c2cc(CC=C(C)C)c(O)cc2O)ccc1O,–
–,73.4,CC1(C)C=Cc2c(ccc3c2OC[C@@H](c2ccc(O)cc2O)C3)O1 [GLABRIDIN],–
< 50,–,COc1cc(O[C@@H]2O[C@H](CO)[C@@H](O)[C@H](O)[C@H]2O)c(-c2coc3cc(O)c(OC)cc3c2=O)cc1O,–
< 50,–,COc1c(/C=C/C(=O)c2ccc(O)cc2)ccc2c1CC(C(C)(C)O)O2 (centres undefined),–
–,52.2,CC(C)=CCc1c(O)ccc2c1O[C@H](c1ccc3c(c1)CC(O)C(C)(C)O3)CC2=O (some centres undefined),–
< 50,–,CC1(C)C=Cc2cc(C(=O)CC(=O)c3ccc(O)cc3)c(O)cc2O1,–
–,23.9,CC(C)=CCc1c(O)ccc2c1O/C(=C\c1ccc(O)c(O)c1)C2=O [LICOAGROAURONE],Kic [8]: 24 µM; inhibition [5]: 50%; inhibition [6]: 4%
–,74.1,CC1(C)C=Cc2c(ccc(C(=O)/C=C/c3ccc(O)cc3)c2O)O1,–
